Data on 22 compounds can be found in PMC8879702, “Discovery of Small Molecule Activators of Chemokine Receptor CXCR4 That Improve Diabetic Wound Healing” (International Journal of Molecular Sciences, 2022).

Format in all cases: cell-based
For test [1], the target named is T1, CXCR4 receptor (Homo sapiens, UniProt P61073). As to the kind of experiment: primary 1536 w β-arrestin recruitment assay (CXCR4-bla U2OS cells, SDF-1α from R&D systems). On the set-up: host or cells: Tango CXCR4-bla U2OS cells. Particulars: for Emax: U2OS. As to the method:
In our effort to identify CXCR4 activators from the NIH Molecular Library Small Molecule Repository (MLSMR), we developed a primary screening assay to measure β-arrestin recruitment to the activated G-protein coupled receptor (GPCR) by a Florescence Resonance Energy Transfer (FRET) in U2OS cells, overexpressing the CXCR4 receptor engineered with a β-lactamase (bla) reporter system. CXCR4-bla cells plated in 1536 w were stimulated in the presence of 10 µM compound concentration. […] Using this approach, we successfully screened the NIH MLSMR of 370,620 compounds (Figure 1A,B) and identified 303 hits (hit rate = 0.08%). […] These compounds were graded according to activity and structure, resulting in 86 compounds that met the criteria as potential CXCR4 agonists for further characterization (Figure 1B). The workflow for high-throughput screening and this study is illustrated in Figure 1B.
Chemical stability, synthetic tractability, solubility and complete dose response and potency criteria led to the prioritization of the 5-aryl-2-cyclopropyl oxazole scaffold, represented by primary hit Compound 2 (Table 1). The early structure–activity relationship was established around the 5-aryl-2-cyclopropyl oxazole core with commercially available analogs with diverse substituents in the sulfonanilide ring of the scaffold. […] Keeping the 2-OMe substituent constant, we screened a small set of electron withdrawing and electron rich substituents at the 5-position of the anilide ring (entries 16–19). […] The analytical data for UCUF-728 is shown in Supplemental Figures S1–S4.

Test [2] deals with CEM-CCRF cells. As to the kind of experiment: 96 wells transwell migration assay in CEM human lymphoblast cells. From the text: Thus, to confirm CXCR4 functional activity, we evaluated UCUF-728 in a 96 wells transwell migration assay in CEM human lymphoblast cells. […] (Supplemental Figure S7). From the analog structure–activity relationship studies and characterization studies in the chemotaxis assay, cAMP signaling and CXCR4 binding assay, we identified UCUF-728 as a potent and functionally selective CXCR4 receptor modulator.
CEM-CCRF (ATCC CCL-119) were suspended in RPMI 1640 (Corning; 10-040-CV) at 5.0 × 10^5 cells/mL and allowed to incubate in cell culture incubator at 37 °C with 5% CO2 for one hour. […] Following 1 h cell incubation and compound dispensing, 150 μL of RPMI 1640 supplemented with 2% Fetal Bovine Serum was added to each well of the compound receiver tray, and 50 μL of 5 × 10^5 cells/mL cell suspension in RPMI were added to each well of the top filter plate. Plates were reassembled and placed in a cell culture incubator at 37 °C with 5% CO2 for three hours. After incubation, Multi-Screen plate was disassembled and 100 μL of solution was collected from compound receiver tray and transferred to 96 well luminescent plate and an equal volume of ATPLite 1step luminescence reagent (Perkin Elmer, Waltham, MA, USA) was added to each well. Luminescence was measured using the CLARIOstar Plus (BMG LABTECH Inc., Cary, NC, USA).

For test [3], the target named is T1, CXCR4 receptor. As to the kind of experiment: cAMP signaling assay, forskolin-induced, PathHunter CHO-K1 CXCR4 cells. As to the method: The CXCR4 receptor is a G-protein coupled receptor (GPCR) coupled to the Gi class, whose primary role is inhibition of adenylate cyclase. We tested the ability of UCUF-728 to induce a Gi-mediated cAMP-inhibitory cellular response. […] (Figure 2B).
Forskolin at final concentration of 0.5 mM was added to all wells using the TECAN dispenser. […] of PathHunter CHO-K1 CXCR4 cells (DiscoverX, Fremont, CA, USA) were added to compounds at 3000 cells/well, centrifuged at 1000 rpm for 30 s and incubated for 30 min at room temperature. DMSO (Sigma Aldrich, St. Louis, MO, USA) was normalized to 0.5%. […] of 4X Eu-cAMP tracer working solution were added to all wells, followed by addition of 5 μL of 4X Ulight-anti-cAMP working solution to all wells. Plates were centrifuged at 1000 rpm for 1 min and incubated for 1 h at room temperature, then read using CLARIOstar Plus (BMG LABTECH Inc., Cary, NC, USA) Lance CAMP protocol.

T1 sequence (P61073 whole entry): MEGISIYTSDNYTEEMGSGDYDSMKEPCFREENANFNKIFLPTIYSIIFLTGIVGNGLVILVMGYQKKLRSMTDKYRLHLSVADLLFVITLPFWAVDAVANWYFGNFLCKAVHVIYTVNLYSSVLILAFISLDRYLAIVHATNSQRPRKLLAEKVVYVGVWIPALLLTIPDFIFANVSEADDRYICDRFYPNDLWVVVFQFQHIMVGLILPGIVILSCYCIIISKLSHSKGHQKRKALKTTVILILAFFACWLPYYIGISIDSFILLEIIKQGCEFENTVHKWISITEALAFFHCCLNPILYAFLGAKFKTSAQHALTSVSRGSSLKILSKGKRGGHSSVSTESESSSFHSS

In the case of `Cc1ccccc1NS(=O)(=O)c1ccc(-c2cnc(C3CC3)o2)cc1` [Compound 2], in test [1], the EC50 was 5.9 µM and the maximal effect (Emax) was 27%.
Take SDF-1α: the “induction of cell migration” value in test [2] (compound in lower channel, 3 h) was “induced migration in the typical bell-shaped curve”. Moreover, the “inhibition of forskolin-induced adenylate cyclase (cAMP signaling)” value in test [3] (CHO-K1 CXCR4 overexpressed cells) is on record as “inhibited forskolin-induced adenylate cyclase”.
In test [1], `O=S(=O)(Nc1ccccc1)c1ccc(-c2cnc(C3CC3)o2)cc1` [Compound 1] displayed an EC50 of over 80 µM.
As to `COc1cc(NS(=O)(=O)c2ccc(-c3cnc(C4CC4)o3)cc2)cc(OC)c1` [Compound 21], in test [1], a half-maximal response (EC50) required 5.6 µM and the Emax was found to be 48%.
Consider `CCc1ccccc1NS(=O)(=O)c1ccc(-c2cnc(C3CC3)o2)cc1` [Compound 3], for which, in test [1], the EC50 worked out at 2.6 µM and the Emax worked out at 38%.
In test [1], `O=S(=O)(Nc1ccccc1Cl)c1ccc(-c2cnc(C3CC3)o2)cc1` [Compound 6] came in with an EC50 of 22 µM and an Emax of 35%.
For `CCOc1ccc(NS(=O)(=O)c2ccc(-c3cnc(C4CC4)o3)cc2)cc1` [Compound 9], in that order: 44.3 µM and 38%.
For `COc1ccc(F)cc1NS(=O)(=O)c1ccc(-c2cnc(C3CC3)o2)cc1` [Compound 17], in that order: 7.3 µM and 42%.
In test [1], `COc1cccc(NS(=O)(=O)c2ccc(-c3cnc(C4CC4)o3)cc2)c1` [Compound 8] showed an EC50 of over 80 µM.
`c1cc(CN2CCCNCCNCCCNCC2)ccc1CN1CCCNCCNCCCNCC1` [AMD3100, reference compound]: the IC50 in test [2] (Homo sapiens, normalized to media only and 6nM SDF-1a, read-out: logIC50 inhibition of migration (converted)) was 31.6 nM. The “block of SDF-1α inhibition of forskolin-induced cAMP” value in test [3] (maximal response at 40 nM SDF-1α) was “dose-dependently blocked”.
In test [1], `CCOc1ccccc1NS(=O)(=O)c1ccc(-c2cnc(C3CC3)o2)cc1` [Compound 5] came in with an EC50 of 1 µM and a maximal response (Emax) of 46%.
The compound `O=S(=O)(Nc1ccccc1F)c1ccc(-c2cnc(C3CC3)o2)cc1` [Compound 7] returned a concentration for a half-maximal effect (EC50) in test [1] of over 80 µM.
In test [1], `Cc1ccc(NS(=O)(=O)c2ccc(-c3cnc(C4CC4)o3)cc2)c(C)c1` [Compound 12] gave an EC50 of 3.4 µM and a maximum response (Emax) of 38%.
In test [1], `COc1ccc(C)cc1NS(=O)(=O)c1ccc(-c2cnc(C3CC3)o2)cc1` [Compound 18] showed an EC50 of 0.9 µM and a maximal effect (Emax) of 48%.
For `Cc1cc(C)cc(NS(=O)(=O)c2ccc(-c3cnc(C4CC4)o3)cc2)c1` [Compound 15], in that order: 3.1 µM and 39%.
The compound `Cc1ccc(NS(=O)(=O)c2ccc(-c3cnc(C4CC4)o3)cc2)cc1C` [Compound 11] came in with an EC50 in test [1] of over 10 µM.
As to `COc1ccc(Cl)cc1NS(=O)(=O)c1ccc(-c2cnc(C3CC3)o2)cc1` [Compound 16], in test [1], the response was half-maximal at 1.65 µM (EC50) and the Emax was determined as 47%.
The corresponding values for `Cc1ccc(C)c(NS(=O)(=O)c2ccc(-c3cnc(C4CC4)o3)cc2)c1` [Compound 13] are 0.7 µM and 42%.
For `COc1ccccc1NS(=O)(=O)c1ccc(-c2cnc(C3CC3)o2)cc1` [Compound 4], in that order: 6.1 µM and 45%.
With `Cc1cccc(NS(=O)(=O)c2ccc(-c3cnc(C4CC4)o3)cc2)c1C` [Compound 10], in test [1], a half-maximal effect (EC50) was put at 1.9 µM and the Emax is 40%.
For `Cc1cccc(C)c1NS(=O)(=O)c1ccc(-c2cnc(C3CC3)o2)cc1` [Compound 14], in that order: 0.6 µM and 45%.
Compound `COc1ccc(NS(=O)(=O)c2ccc(-c3cnc(C4CC4)o3)cc2)cc1OC` [Compound 20] yielded an EC50 in test [1] of over 80 µM.

A word on the EC50: it is the midpoint of the concentration-response curve. By Emax is commonly meant the maximal effect, on the per cent scale that the assay sets.
